In patent publication US20230175032A1, “EFFICIENT SYNTHESIS OF OMEGA-GLYCOSIDES AND ALKYL GLYCOSIDES” (AMPHISTAR, priority 2020, published 2023):

Tested on: S. bombicola Δcyp52M1Δfao1 strain
Assay: shake flask cultivation fed with primary alcohols, viability as colony forming units
Type: cell-based, Starmerella bombicola
Conditions: alcohol added after 48 h of cultivation; in contrast to all other fed substrates (FIG. 8A)
Experimental: Production experiments using S. bombicola were performed using the production medium described by Lang et al., (2000). For shake flask experiments, 5 mL tube cultures were set up 24 h (30° C.), before transferring to shake flasks (4% inoculation). Production experiments were executed with feeding of fatty alcohols: oleyl alcohol, stearyl alcohol, lauryl alcohol, myristyl alcohol or cetyl alcohol which were added after 48 h of cultivation. The Δcyp52M1Δfao1 strain was also assessed without addition of the hydrophobic alcohol. For every production experiment, cultivation was stopped when glucose was depleted from the medium. […]
Optical density (OD) of cultures was measured at 600 nm using the Jasco V 630 Bio spectrophotometer (Jasco Europe) of 1 mL samples diluted with physiological solution (9 g/L NaCl). The viability of yeast cells in cultivation experiments was assessed by determining colony forming units (CFUs) which were expressed as the average logarithm of CFUs per culture volume as log(CFU/mL) (Saerens, Saey, et al., 2011). Alternatively, Cell Dry Weight (CDW) was determined by centrifuging 1 mL fermentation samples at 14000 rpm for 5 min in tared Eppendorf tubes, and subsequently washing the cell pellets twice with 1 mL physiological solution. […] The CDW (g/L) was calculated after subtraction of the empty weight of the Eppendorf tube.

Q: For `CCCCCCCCCCCCO` [lauryl alcohol], which CFUs is on record?
A: The CFUs was “significant drop”.
